Reference: patent US20260248810A1, “COMPOSITIONS FOR TREATING A SUBJECT FROM SEXUAL DYSFUNCTION” (priority 2023, published 2026)

Columns and labels:
[1] = Plasma total and free testosterone after sublingual androgen intake in two male patients; settings: blood plasma 15 minutes after sublingual intake, 5 mg T, or 5 mg T + 5 mg DHT; for Free T: measured, not calculated; for concentration at 15 min: human, plasma, other: sublingual, 5 mg, Total T
Procedure: (§1) The first example concerns two male heterosexual patients with sexual problems (erection problems and reduced sexual arousal). […] This prompted two alternative forms of treatment. The first treatment involved taking 5 mg sublingual testosterone (in a solution consisting of alcohol, denaturalized water, testosterone and cyclodextrins) followed 2.5 hours later by taking Viagra (sildenafil 50 mg). The second treatment consisted of simultaneously taking 5 mg sublingual testosterone and 5 mg sublingual dihydrotestosterone (DHT) (in a solution consisting of alcohol, denaturalized water, DHT and cyclodextrins), followed after 2.5 hours by taking Viagra (50 mg). The testosterone and DHT solutions were prepared by a pharmacist on the request of a general practitioner. On both treatment days, patients were asked to engage in sexual activity between 1 and 1.5 hours after taking Viagra. […] Patients were also asked to answer some questions about their sexual arousal immediately before and within an hour after sexual activity.
The table below describes the effects of the different treatments on ‘total testosterone’ and ‘free testosterone (i.e. measured, not calculated)’ for both patients: […]

[2] = sublingually with cyclodextrins; women about 0.1-2 mg, men about 0.5-20 mg; cited from earlier work
[3] = system: male heterosexual patients with sexual problems (erection problems and reduced sexual arousal); test: Self-rated sexual arousal (scale 1 to 10) before and during sexual activity, sublingual androgen(s) followed by Viagra; format: in vivo, human; settings: history of the two male patients before the alternative treatments
Procedure: as §1

[4] = cited from earlier work

In the case of C[C@]12CC[C@H]3[C@@H](CCC4=CC(=O)CC[C@@]43C)[C@@H]1CC[C@@H]2O [T, 17-β-hydroxyandrost-4-en-3-one], the “Free T” value ([1]; Patient 1) is reported as 440 pml/L, the “Free T” value ([1]; Patient 2) is reported as 1030 pml/L and the concentration at 15 min ([1]; Patient 1) is reported as 28.7 nM. The concentration at 15 min ([1]; Patient 2) was 43.9 nM and the “time to pharmacological peak in testosterone” value [2] was “about 15 minutes”.

For CCCc1nn(C)c2c(=O)[nH]c(-c3cc(S(=O)(=O)N4CCN(C)CC4)ccc3OCC)nc12 [Viagra, sildenafil], the “effect of the usual treatments on the sexual problems” value [3] was “little or no effect”.

For CC[C@H](C)[C@@H]1NC(=O)[C@H](Cc2ccc(O)cc2)NC(=O)[C@@H](N)CSSC[C@@H](C(=O)N2CCC[C@H]2C(=O)N[C@@H](CC(C)C)C(=O)NCC(N)=O)NC(=O)[C@H](CC(N)=O)NC(=O)[C@H](CCC(N)=O)NC1=O [oxytocin], the “time of behavioral and neural effects after administration” value ([4]; dosages between 20-50 IE) is given as 15 to 90 min, the “T-max of oxytocin levels in the blood circulation” value ([4]; intranasal administration) is given as “approximately 15 minutes” and the “return of oxytocin levels to baseline” value ([4]; intranasal administration) is given as “approximately 90 minutes”.
